The term inhibition denotes how much of the control response was suppressed. A high value points to a response far below the control. The IC50 is the concentration that gives 50% inhibition.

The results in this text go back to ChEMBL document CHEMBL4251557 (Eur J Med Chem, 2017).

In assay [1] the target is Neuraminidase (Influenza A virus) (UniProt A5Z252). As to conditions: Influenza A virus (A/Anhui/1/2005(H5N1)); at 100 µM.
Assay [2] has the same target. As to conditions: Influenza A virus (A/Anhui/1/2005(H5N1)); at 10 µM.
The target of assay [3] is Neuraminidase (Influenza A virus, UniProt A5Z252). The experiment in a line: Inhibition of Influenza A virus A/Anhui/1/2005(H5N1) neuraminidase using MUNANA as substrate preincubated for 5 to 15 mins followed by substrate addition measured after 30 mins by fluorescence assay.
The target in assay [4] is T1, Neuraminidase (Influenza A virus, UniProt B4URF0). As to the kind of experiment: Inhibition of Influenza A virus A/Anhui/1/2013(H7N9) neuraminidase 150 cavity at 10 uM using MUNANA as substrate preincubated for 5 to 15 mins followed by substrate addition measured after 30 mins by fluorescence assay relative to control.
T1 sequence (B4URF0 whole entry): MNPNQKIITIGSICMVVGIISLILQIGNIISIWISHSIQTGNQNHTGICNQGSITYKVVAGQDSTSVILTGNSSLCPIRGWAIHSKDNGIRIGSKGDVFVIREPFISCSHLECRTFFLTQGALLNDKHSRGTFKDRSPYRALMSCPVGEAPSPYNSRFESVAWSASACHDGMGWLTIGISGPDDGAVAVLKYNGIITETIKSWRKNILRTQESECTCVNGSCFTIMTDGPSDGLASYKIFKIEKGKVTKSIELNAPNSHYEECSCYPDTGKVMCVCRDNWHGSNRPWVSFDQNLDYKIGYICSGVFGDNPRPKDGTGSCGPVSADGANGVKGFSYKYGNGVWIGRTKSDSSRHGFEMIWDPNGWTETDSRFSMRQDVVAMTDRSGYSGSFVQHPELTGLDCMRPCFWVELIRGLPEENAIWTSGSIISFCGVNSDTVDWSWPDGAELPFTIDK
The target in assay [5] is T1, Neuraminidase. The experiment in a line: Inhibition of Influenza A virus A/California/04/2009(H1N1) neuraminidase using MUNANA as substrate preincubated for 5 to 15 mins followed by substrate addition measured after 30 mins by fluorescence assay.

On to `CCC(CC)O[C@@H]1C=C(C(=O)O)C[C@H](NC(=O)CCc2ccccc2)[C@H]1NC(C)=O`, for which the inhibition in assay [1] was 19.1%.

On to `CCC(=O)N[C@H]1CC(C(=O)O)=C[C@@H](OC(CC)CC)[C@@H]1NC(C)=O`, for which the values for the inhibition in assay [1] and in assay [2] were 84.5% and 47.9%, respectively. For the compound `CCC(CC)O[C@@H]1C=C(C(=O)O)C[C@H](NC(=O)/C=C/c2ccccc2)[C@H]1NC(C)=O`, the inhibition in assay [1] is 50.2%; in assay [2], 14.5%. The corresponding values for `CCC(CC)O[C@@H]1C=C(C(=O)O)C[C@H](NC(=O)Cc2ccc(C)cc2)[C@H]1NC(C)=O` are 57.2% and 10%. Consider `CCC(CC)O[C@@H]1C=C(C(=O)O)C[C@H](NC(=O)CN(C)C)[C@H]1NC(C)=O`, for which the inhibition was found to be 58.2% in assay [1] and 30% in assay [2].

The compound `CCC(CC)O[C@@H]1C=C(C(=O)O)C[C@H](NC(=O)CN)[C@H]1NC(C)=O` displayed an IC50 against Neuraminidase [3] of 2670 nM.

In turn, `CCC(CC)O[C@@H]1C=C(C(=O)O)C[C@H](NC(=O)CCCc2ccccc2)[C@H]1NC(C)=O` gave an inhibition in assay [1] of 36%. In the case of `C=CC(=O)N[C@H]1CC(C(=O)O)=C[C@@H](OC(CC)CC)[C@@H]1NC(C)=O`, inhibition against Neuraminidase [3] was half-maximal at 2980 nM (IC50). For `CCC(CC)O[C@@H]1C=C(C(=O)O)C[C@H](NC(=O)C(C)C)[C@H]1NC(C)=O`, the inhibition is 47.6% in assay [1] and 14.2% in assay [2]. The corresponding values for `CCC(CC)O[C@@H]1C=C(C(=O)O)C[C@H](NC(=O)[C@H](O)CCc2ccccc2)[C@H]1NC(C)=O` are 60.4% and 49.2%.

As to `CCCCCC(=O)N[C@H]1CC(C(=O)O)=C[C@@H](OC(CC)CC)[C@@H]1NC(C)=O`, the inhibition in assay [1] turned out to be 33.2%. On to `CCCC(=O)N[C@H]1CC(C(=O)O)=C[C@@H](OC(CC)CC)[C@@H]1NC(C)=O`, for which the inhibition in assay [1] was 66.8%; in assay [2], 14.7%.

The compound `CCC(CC)O[C@@H]1C=C(C(=O)O)C[C@H](NC(=O)C(F)(F)F)[C@H]1NC(C)=O` came in with an IC50 against Neuraminidase [3] of 266 nM. That is a sub-micromolar value. Regarding `CCOC(=O)C1=C[C@@H](OC(CC)CC)[C@H](NC(C)=O)[C@@H](N)C1`, the inhibition in assay [1] was determined as 95.5%; in assay [2] it was 91%. As for `CCCCC(=O)N[C@H]1CC(C(=O)O)=C[C@@H](OC(CC)CC)[C@@H]1NC(C)=O`, the inhibition in assay [1] worked out at 11.3%. Take `CCC(CC)O[C@@H]1C=C(C(=O)O)C[C@H](NC(C)=O)[C@H]1NC(C)=O`: the IC50 at Neuraminidase [4] stood at 59.5 nM; on Neuraminidase [5], 16.5 nM; at Neuraminidase [3] it was 238 nM. The compound `CCC(CC)O[C@@H]1C=C(C(=O)O)C[C@H](NC(=O)C(F)F)[C@H]1NC(C)=O` displayed an IC50 against Neuraminidase [3] of 190 nM. For the compound `CCC(CC)O[C@@H]1C=C(C(=O)O)C[C@H](NC=O)[C@H]1NC(C)=O`, the IC50 on Neuraminidase [3] was found to be 1290 nM. This IC50 lies about 6.8-fold higher than the previous one. For `CCC(CC)O[C@@H]1C=C(C(=O)O)C[C@H](NC(=O)Cc2c[nH]c3ccccc23)[C@H]1NC(C)=O`, the inhibition was found to be 47.3% in assay [1] and 12.8% in assay [2]. `CCC(CC)O[C@@H]1C=C(C(=O)O)C[C@H](NC(=O)CF)[C@H]1NC(C)=O` yielded an IC50 against Neuraminidase [3] of 228 nM. As to `CCC(CC)O[C@@H]1C=C(C(=O)O)C[C@H](NC(=O)[C@@H](C)N)[C@H]1NC(C)=O`, the inhibition in assay [1] is 49.3%; in assay [2], 18.8%.
